Literature values as cited in patent publication US20050159809A1, “Implantable medical devices for treating or preventing restenosis” (Medtronic Vascular, Inc., priority 2004, published 2005).

Test system: balloon-injury induced neointimal thickening and macrophage accumulation
Conditions: four weeks after balloon de-endothelialization

## CC(C)(Sc1cc(C(C)(C)C)c(O)c(C(C)(C)C)c1)Sc1cc(C(C)(C)C)c(O)c(C(C)(C)C)c1 [probucol, {[bis(3,5-di-tert-butyl-4-hydroxyphenyl)thio]propane}]
High cholesterol rabbit food plus 1% probucol vs cholesterol-only diet, P<0.05
  absolute neointima thickness: reduced
High cholesterol rabbit food plus 1% probucol vs high cholesterol feed without probucol, P<0.001
  macrophage content in the neointima: lower
